The text below walks through data of patent publication US5521173A, “Tricyclic benzazepine vasopressin antagonists” (American Home Products Corporation, priority 1995, dated 1996).

The structures appear in SMILES notation.

For one experiment, the system named is Vasopressin V2. Description: Vasopressin V2 Antagonist Activity in Conscious Hydrated Rats. It counts as in vivo, rat. The conditions noted are these: 10 mg/kg orally, AVP 0.4 μg/kg i.p.; for Osmolality: urine. On the procedure: Two to four rats are used for each compound. One hour later, arginine vasopressin (AVP, antidiuretic hormore, ADH) dissolved in peanut oil is administered at 0.4 μg/kg intraperitoneally. Two rats in each test would not receive arginine vasopressin but only the vehicle (peanut oil) to serve as water-loading control. Twenty minutes later each rat is given 30 mL/kg of deionized water orally by gavage and is placed individually in a metabolic cage equipped with a funnel and a graduated glass cylinder to collect urine for four hours. Urine volume is measured and osmolality analyzed by use of a Fiske One-Ten osmometer (Fiske Assoc., Norwood, Mass., USA). Urinary sodium, potassium, and chloride are analyzed by use of ion-specific electrodes in a Beckman E3 (Electrolyte 3) Analyzer. In the following results, […] and decreased osmolality relative to AVP-control indicates activity.

A further experiment has as its target T1, oxytocin receptors (Rattus norvegicus, UniProt P70536).
T1 construct: The uteri are dissected out, cleaned of fat and connective tissues; from tissue; host or cells: uteri of DES-treated female Sprague-Dawley rats
T1 sequence (P70536 1-388): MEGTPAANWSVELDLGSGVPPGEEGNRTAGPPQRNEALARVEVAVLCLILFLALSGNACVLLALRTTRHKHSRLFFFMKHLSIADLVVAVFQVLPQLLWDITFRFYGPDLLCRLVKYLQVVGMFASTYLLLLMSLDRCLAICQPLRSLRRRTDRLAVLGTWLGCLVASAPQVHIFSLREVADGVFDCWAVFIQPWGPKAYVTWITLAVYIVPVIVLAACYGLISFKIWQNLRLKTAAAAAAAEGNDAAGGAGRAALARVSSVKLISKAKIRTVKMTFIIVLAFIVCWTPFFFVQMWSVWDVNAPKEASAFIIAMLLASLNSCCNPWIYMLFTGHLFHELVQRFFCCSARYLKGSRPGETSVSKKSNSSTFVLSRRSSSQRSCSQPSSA
Briefly: Oxytocin Receptor Binding. The conditions noted are these: for IC50: 1.0 nM [3H]OT. On the set-up: species or system rat (female Sprague-Dawley). On the procedure:
Oxytocin Receptor Binding
Female Sprague-Dawley rats weighing approximately 200-250 g are injected intramuscularly (i.m.) with 0.3 mg/kg of body weight of diethylstilbestrol (DES). The rats are sacrificed 18 hours later under pentobarbital anesthesia. The uteri are dissected out, cleaned of fat and connective tissues and rinsed in 50 ml of normal saline. The tissue pooled from six rats is homogenized in 50 ml of […] Tris.HCl, containing 0.5 mM dithiothreitol and 1.0 mM EDTA, adjusted to pH 7.4, using a polytron at setting 6 with three passes of 10 sec each. The homogenate is passed through two (2) layers of cheesecloth and the filtrate centrifuged at 1000× g for 10 min. The clear supernatant is removed and recentrifuged at 165,000× g for 30 min. The resulting pellet containing the oxytocin receptors is resuspended in 50.0 mM Tris.HCl containing 5.0 mM MgCl2 at pH 7.4, to give a protein concentration of 2.5 mg/ml of tissue suspension. This preparation is used in subsequent binding assays with [^3 H]Oxytocin.
Binding of 3,5-[^3 H]Oxytocin ([^3 H]OT) to its receptors is done in microtiter plates using [^3 H]OT, at various concentrations, in an assay buffer of 50.0 mM Tris.HCl, pH 7.4 and containing 5.0 mM MgCl2, and a mixture of protease inhibitors: BSA, 0.1 mg; aprotinin, 1.0 mg; 1,10-phenanthroline, 2.0 mg; […], 10.0 mg; and PMSF, 0.3 mg per 100 ml of buffer solution. Non-specific binding is determined in the presence of 1.0 uM unlabeled OT. The binding reaction is terminated after 60 min., at 22° C., by rapid filtration through glass fiber filters using a Brandel, cell harvester (Biomedical Research and Development Laboratories,Inc., Gaithersburg, Md.). Competition experiments are conducted at equilibrium using 1.0 nM [^3 H]OT and varying the concentration of the displacing agents. The concentrations of agent displacing 50% of [^3 H]OT at its sites (IC50) are calculated by a computer assisted LUNDON-2 program (LUNDON SOFTWARE INC., Ohio, USA).

For the next experiment, the system named is Vasopressin V1. Description: Vasopressin V1 Antagonist Activity in Conscious Rats (vasopressin vasopressor response). It counts as in vivo, rat. The conditions noted are these: for Max % Inhibition: vasopressin vasopressor response. On the procedure: Vasopressin V1 Antagonist Activity in Conscious Rats Conscious rats are restrained in a supine position with elastic tape. The area at the base of the tail is locally anesthetized by subcutaneous in filtration with 2% procaine (0.2 ml). Using aseptic technique the ventral caudal tail artery is isolated and a cannula made of PE 10 and 20 (heat-fused) tubing is passed into the lower abdominal aorta. The cannula is secured, heparinized (1000 i.u./cc), sealed and the wound closed with one or two stitches of Dexon 4-0. The caudal vein is also cannulated in the same manner for intravenous drug administration. The duration of the surgery is approximately 5 minutes. Additional local anesthesia (2% procaine or lidocaine) is provided as needed. The animals are placed in plastic restraining cages in an upright position. The cannula is attached to a Statham P23Db pressure transducer and pulsatile blood pressure is recorded. […] Percentage of antagonism by the compound is calculated using the pre-drug vasopressin vasopressor response as 100%. The results of this test on representative compounds of this invention in which the dose, the maximum % inhibition and the time in minutes, are shown in Table III.

Usually inhibition stands for the relative decrease from the control value, in per cent. The low end stands for little suppression, the high end for strong suppression. For orientation: IC50 means the midpoint of a concentration-inhibition curve. High values mean weaker potency in that assay, low ones greater potency in that assay. Take `O=C(c1ccc(Sc2ccccc2)cc1)N1Cc2cccn2Cc2ccccc21` [Example 15, 10,11-Dihydro-10-[4-(phenylthio)benzoyl]-5H-pyrrolo[2,1-c][1,4] benzodiazepine]: in the experiment with Vasopressin V2, the “Urine Volume” value amounted to 4 ml/4 hrs and the Osmolality was 1278 mOsm/kg. On oxytocin receptors, this compound came in with an inhibition at 10 µM of 98% and a half-maximal inhibitory concentration (IC50) of 2100 nM.

`Cc1ccc(Sc2ccc(C(=O)N3Cc4cccn4Cc4ccccc43)cc2)cc1` [Example 11]: in the experiment on Vasopressin V2, the “Urine Volume” value is given as 11 ml/4 hrs and the Osmolality turned out to be 825 mOsm/kg. Also, in the experiment with Vasopressin V1 (30 mg/kg iv), the “Time (of maximum % inhibition)” value was 300 min and the “Max % Inhibition” value was determined as 54%. Further, at oxytocin receptors, the inhibition at 10 µM was determined as 86% and the concentration for half-maximal inhibition (IC50) is 1800 nM.

Regarding `O=C(c1ccc(C#Cc2ccccc2)cc1)N1Cc2cccn2Cc2ccccc21` [Example 4, 10,11-Dihydro-10-[4-(phenylethynyl)-5H-pyrrolo[2,1-c]1,4]benzodiazepine], in the experiment on Vasopressin V2, the “Urine Volume” value stood at 6.3 ml/4 hrs and the Osmolality is 1033 mOsm/kg. Further, in the experiment with Vasopressin V1 (30 mg/kg iv), the “Time (of maximum % inhibition)” value came out at 90 min and the “Max % Inhibition” value was found to be 30%. On oxytocin receptors, this compound returned an inhibition at 10 µM of 62%.

Regarding `O=C(c1ccc(-c2ccccc2)cc1)N1Cc2cccn2-c2ccccc21` [Example 17, 5-([1,1'-Biphenyl]-4-ylcarbonyl)-4,5-dihydropyrrolo[1,2-a]quinoxaline], in the experiment with Vasopressin V2, the “Urine Volume” value is 10.3 ml/4 hrs and the Osmolality amounted to 929 mOsm/kg. Moreover, in the experiment with Vasopressin V1 (30 mg/kg iv), the “Time (of maximum % inhibition)” value came out at 60 min and the “Max % Inhibition” value is given as 63%. Further, on oxytocin receptors, the inhibition at 10 µM is 92% and the IC50 was 1090 nM.

With `O=C(c1ccc(-c2cccs2)cc1)N1Cc2cccn2Cc2ccccc21` [Example 1, 10,11-Dihydro-10-[4-(2-thienyl)benzoyl]-5H-pyrrolo[2,1-c][1,4]benzodiazepine], in the experiment with Vasopressin V2, the “Urine Volume” value worked out at 5 ml/4 hrs and the Osmolality was 1148 mOsm/kg. Moreover, in the experiment with Vasopressin V1 (30 mg/kg po), the “Time (of maximum % inhibition)” value is 120 min and the “Max % Inhibition” value came out at 53%.

`O=C(c1ccccc1)c1ccc(C(=O)N2Cc3cccn3Cc3ccccc32)cc1` [Example 16, 10-(4-Benzoylbenzoyl)-10,11-dihydro-5H-pyrrolo[2,1-c][1,4]benzodiazepine]: in the experiment with Vasopressin V2, the “Urine Volume” value came out at 6 ml/4 hrs and the Osmolality is 1022 mOsm/kg. In the experiment with Vasopressin V1 (10 mg/kg iv), the “Time (of maximum % inhibition)” value worked out at 240 min and the “Max % Inhibition” value is recorded as 67%. At oxytocin receptors, this compound registered an inhibition at 10 µM of 100% and an IC50 of 110 nM.

For `C=CCOc1ccc(-c2ccc(C(=O)N3Cc4cccn4Cc4ccccc43)cc2)cc1` [Example 14, 10,11-Dihydro-10-[[4'-(2-propenyloxy)[1,1'-biphenyl]-4-yl]carbonyl]-5H-pyrrolo[2,1-c][1,4]benzodiazepine], in the experiment on Vasopressin V2, the “Urine Volume” value is listed as 4 ml/4 hrs and the Osmolality stood at 1247 mOsm/kg. Also, in the experiment on Vasopressin V1 (30 mg/kg iv), the “Time (of maximum % inhibition)” value stood at 90 min and the “Max % Inhibition” value is recorded as 50%. The same compound returned an inhibition at 10 µM at oxytocin receptors of 67%.

With `O=C(c1ccc(S(=O)(=O)c2ccccc2)cc1)N1Cc2cccn2Cc2ccccc21` [Example 12], in the experiment on Vasopressin V2, the “Urine Volume” value amounted to 5.8 ml/4 hrs and the Osmolality is listed as 1254 mOsm/kg. At 10 µM the inhibition on oxytocin receptors was 69%.

For the compound `O=C(c1ccc(-c2nccs2)cc1)N1Cc2cccn2Cc2ccccc21` [Example 10, 10,11-Dihydro-10-[4-(2-thiazolyl)benzoyl]-5H-pyrrolo[2,1-c][1,4]benzodiazepine], at oxytocin receptors, the inhibition at 10 µM was 77% and the IC50 worked out at 2500 nM.
